Structures can show the parent of a compound that is named as a salt.
These compounds were tested on Acinetobacter baumannii ATCC 17961 (assay: Antimicrobial susceptibility testing: 90% growth inhibitory concentration (IC90) determination). Conditions: ATCC17961, Acinetobacter baumannii ATCC 17961, Iso-Sensitest broth, read-out: ATCC 17961 IC90.
Assay type: cell-based
Method in brief: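 Broth microdilution in Iso-Sensitest medium, twofold series (e.g. 50 to 0.097 μM final), ~5×10^5 CFU/ml inoculum, 35±2 °C. OD600 read every 20 min over 16 h. IC90 derived from growth inhibition during logarithmic phase.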

Structure (SMILES)	IC90 [nM]
C[C@H](N)C(=O)N1CCN(C(=O)c2ccc(NC(=O)c3ncc(-c4cn(CC5CCC5)nc4C(F)(F)F)n3C)cc2Cl)CC1 [Example 278, N-(4-(4-(L-alanyl)piperazine-1-carbonyl)-3-chlorophenyl)-5-(1-(cyclobutylmethyl)-3-(trifluoromethyl)-1H-pyrazol-4-yl)-1-methyl-1H-imidazole-2-carboxamide hydrochloride]	344
Cn1c(-c2cn(CC3CCC3)nc2C(F)(F)F)cnc1C(=O)Nc1ccc(C(=O)N2CCN(C(=O)C3CCN3)CC2)c(Cl)c1 (stereo not shown) [Example 281, N-(4-(4-(azetidine-2-carbonyl)piperazine-1-carbonyl)-3-chlorophenyl)-5-(1-(cyclobutylmethyl)-3-(trifluoromethyl)-1H-pyrazol-4-yl)-1-methyl-1H-imidazole-2-carboxamide hydrochloride]	348
Cn1c(-c2cn(CC(F)F)nc2C(F)(F)F)cnc1C(=O)Nc1ccc(S(=O)(=O)N2CCN(C(=O)CN)CC2)cc1 [Example 282, 5-(1-(2,2-difluoroethyl)-3-(trifluoromethyl)-1H-pyrazol-4-yl)-N-(4-((4-glycylpiperazin-1-yl)sulfonyl)phenyl)-1-methyl-1H-imidazole-2-carboxamide formate]	348
CCn1cc(-c2cnc(C(=O)Nc3ccc(C(=O)NCCCCCCN)c(Br)c3)n2C)c(C(F)(F)F)n1 [Example 284, N-(4-((6-aminohexyl)carbamoyl)-3-bromophenyl)-5-(1-ethyl-3-(trifluoromethyl)-1H-pyrazol-4-yl)-1-methyl-1H-imidazole-2-carboxamide hydrochloride]	350
Cn1c(-c2cn(C3CC3)nc2C(F)(F)F)cnc1C(=O)Nc1ccc(C(=O)N2CCN(C(=O)[C@@H](N)CCCN)CC2)c(Cl)c1 [Example 285, (S)-N-(3-chloro-4-(4-(2,5-diaminopentanoyl)piperazine-1-carbonyl)phenyl)-5-(1-cyclopropyl-3-(trifluoromethyl)-1H-pyrazol-4-yl)-1-methyl-1H-imidazole-2-carboxamide dihydrochloride]	351
Cn1c(-c2cn(C3CC3)nc2C(F)(F)F)cnc1C(=O)Nc1ccc(C(=O)N2CCN(C(=O)C3CNCC(O)C3)CC2)c(Cl)c1 (stereo not shown) [Example 286, N-[3-chloro-4-[4-(5-hydroxypiperidine-3-carbonyl)piperazine-1-carbonyl]phenyl]-5-[1-cyclopropyl-3-(trifluoromethyl)pyrazol-4-yl]-1-methylimidazole-2-carboxamide;hydrochloride]	351
Cn1c(-c2cn(C3CC3)nc2C(F)(F)F)cnc1C(=O)Nc1ccc(C(=O)N2CCN(C(=O)[C@@H]3CCC[C@@H](N)C3)CC2)c(Cl)c1 [Example 287, N-(4-(4-((1R,3R)-3-aminocyclohexane-1-carbonyl)piperazine-1-carbonyl)-3-chlorophenyl)-5-(1-cyclopropyl-3-(trifluoromethyl)-1H-pyrazol-4-yl)-1-methyl-1H-imidazole-2-carboxamide hydrochloride]	352

Continued, values first:

IC90 [nM]	Structure (SMILES)
354	Cn1c(-c2cn(C3CC3)nc2C(F)(F)F)cnc1C(=O)Nc1ccc(C(=O)NC[C@H]2CC[C@H](N)CC2)c(Cl)c1 [Example 289, rac-N-(4-((((1r,4r)-4-aminocyclohexyl)methyl)carba-moyl)-3-chlorophenyl)-5-(1-cyclopropyl-3-(trifluoromethyl)-1H-pyrazol-4-yl)-1-methyl-1H-imidazole-2-carboxamide hydrochloride]
358	Cn1c(-c2cn(CC(F)F)nc2C(F)(F)F)cnc1C(=O)Nc1ccc(C(=O)N2CCN(CCN)CC2)c(Cl)c1 [Example 290, N-(4-(4-(2-aminoethyl)piperazine-1-carbonyl)-3-chlorophenyl)-5-(1-(2,2-difluoroethyl)-3-(trifluoromethyl)-1H-pyrazol-4-yl)-1-methyl-1H-imidazole-2-carboxamide formate]
359	Cc1cc(NC(=O)c2ncc(-c3cn(CC#N)nc3C(F)(F)F)n2C)ccc1S(C)(=O)=NCCCN (stereo not shown) [Example 291, N-[4-[N-(3-aminopropyl)-S-methyl-sulfonimidoyl]-3-methyl-phenyl]-5-[1-(cyanomethyl)-3-(trifluoromethyl)pyrazol-4-yl]-1-methyl-imidazole-2-carboxamide; formic acid]
364	Cn1c(-c2cn(CC3CCC3)nc2C(F)(F)F)cnc1C(=O)Nc1ccc(C(=O)N2CCN(C(=O)[C@H]3C[C@@H](N)C3)CC2)c(Cl)c1 [Example 295, rac-N-(4-(4-((1s,3s)-3-aminocyclobutane-1-carbonyl)piperazine-1-carbonyl)-3-chlorophenyl)-5-(1-(cyclobutylmethyl)-3-(trifluoromethyl)-1H-pyrazol-4-yl)-1-methyl-1H-imidazole-2-carboxamide hydrochloride]
364	CCn1cc(-c2cnc(C(=O)Nc3ccc(C(=O)N4CCN(C(=O)N[C@H]5C[C@@H](N)C5)CC4)c(Cl)c3)n2C)c(C(F)(F)F)n1 [Example 296, N-(3-aminocyclobutyl)-4-[2-chloro-4-[[5-[1-ethyl-3-(trifluoromethyl)pyrazol-4-yl]-1-methylimidazole-2-carbonyl]amino]benzoyl]pipera-zine-1-carboxamide;formic acid]
365	CN1CCN(C(=O)N2CCN(C(=O)c3ccc(NC(=O)c4ncc(-c5cn(C6CC6)nc5C(F)(F)F)n4C)cc3Cl)CC2)CC1 [Example 297, N-(3-chloro-4-(4-(4-methylpiperazine-1-carbonyl)piperazine-1-carbonyl)phenyl)-5-(1-cyclopropyl-3-(trifluoromethyl)-1H-pyrazol-4-yl)-1-methyl-1H-imidazole-2-carboxamide]
365	Cn1c(-c2cn(CCF)nc2C(F)(F)F)cnc1C(=O)Nc1ccc(C(=O)N2CCN(C(=O)[C@H]3C[C@H](N)C3)CC2)c(Cl)c1 [Example 298, N-[4-[4-(3-aminocyclobutanecarbonyl)piper-azine-1-carbonyl]-3-chlorophenyl]-5-[1-(2-fluoroethyl)-3-(trifluoromethyl)pyrazol-4-yl]-1-methylimidazole-2-carboxamide;trihydrochloride]
366	Cn1c(-c2cn(C3CC3)nc2C(F)(F)F)cnc1C(=O)Nc1ccc(C(=O)N2CCN(C(=O)[C@H]3CCNC3)CC2)c(Cl)c1 [Example 299, (S)-N-(3-chloro-4-(4-(pyrrolidine-3-carbonyl)piperazine-1-carbonyl)phenyl)-5-(1-cyclopropyl-3-(trifluoromethyl)-1H-pyrazol-4-yl)-1-methyl-1H-imidazole-2-carboxamide hydrochloride]
369	Cn1c(-c2cn(CC(F)F)nc2C(F)(F)F)cnc1C(=O)Nc1ccc(C(=O)N2CCN(C(=O)C3CCNCC3)CC2)c(F)c1 [Example 301, 5-(1-(2,2-difluoroethyl)-3-(trifluoromethyl)-1H-pyrazol-4-yl)-N-(3-fluoro-4-(4-(piperidine-4-carbonyl)piperazine-1-carbonyl)phenyl)-1-methyl-1H-imidazole-2-carboxamide]
370	Cn1c(-c2cn(C3CC3)nc2C(F)(F)F)cnc1C(=O)Nc1ccc(C(=O)N2CCN(C(=O)CCCN)CC2)c(Cl)c1 [Example 302, N-(4-(4-(4-aminobutanoyl)piperazine-1-carbonyl)-3-chlorophenyl)-5-(1-cyclopropyl-3-(trifluoromethyl)-1H-pyrazol-4-yl)-1-methyl-1H-imidazole-2-carboxamide hydrochloride]
371	Cn1c(-c2cn(CC(F)F)nc2C(F)(F)F)cnc1C(=O)Nc1ccc(C(=O)N2CCN(C(=O)NCC3(O)CNC3)CC2)c(Cl)c1 [Example 303, 4-[2-chloro-4-[[5-[1-(2,2-difluoroethyl)-3-(trifluoromethyl)pyrazol-4-yl]-1-methyl-imidazole-2-carbonyl]amino]benzoyl]-N-[(3-hydroxyazetidin-3-yl)methyl]piperazine-1-carboxamide; formic acid]
371	Cn1c(-c2cn(CC3CCCC3)nc2C(F)(F)F)cnc1C(=O)Nc1ccc(C(=O)N2CCN(C(=O)C3CCNCC3)CC2)c(Cl)c1 [Example 304, N-(3-chloro-4-(4-(piperidine-4-carbonyl)piperazine-1-carbonyl)phenyl)-5-(1-(cyclopentylmethyl)-3-(trifluoromethyl)-1H-pyrazol-4-yl)-1-methyl-1H-imidazole-2-carboxamide hydrochloride]
373	Cn1c(-c2cn(CC(F)(F)F)nc2C(F)(F)F)cnc1C(=O)Nc1ccc(C(=O)N2CCN(C(=O)N[C@H]3C[C@@H](N)C3)CC2)c(Cl)c1 [Example 305, rac-N-((1s,3s)-3-aminocyclobutyl)-4-(2-chloro-4-(1-methyl-5-(1-(2,2,2-trifluoroethyl)-3-(trifluoromethyl)-1H-pyrazol-4-yl)-1H-imidazole-2-carboxamido)benzoyl)piperazine-1-carboxamide hydrochloride]

Same assay, conditions: Acinetobacter baumannii, ATCC17961, read-out: ATCC 17961 IC90, Acinetobacter baumannii ATCC 17961, Iso-Sensitest broth

Structure (SMILES)	IC90 [nM]
CC(C)Cn1cc(-c2cnc(C(=O)Nc3ccc(C(=O)N4CCN(C(=O)N[C@H]5C[C@@H](N)C5)CC4)c(Cl)c3)n2C)c(C(F)(F)F)n1 [Example 292, rac-N-((1s,3s)-3-aminocyclobutyl)-4-(2-chloro-4-(5-(1-isobutyl-3-(trifluoromethyl)-1H-pyrazol-4-yl)-1-methyl-1H-imidazole-2-carboxamido)benzoyl)piperazine-1-carboxamide hydrochloride]	361
Cn1c(-c2cn(CC3CC(F)(F)C3)nc2C(F)(F)F)cnc1C(=O)Nc1ccc(C(=O)N2CCN(C(=O)N[C@H]3C[C@@H](N)C3)CC2)c(Cl)c1 [Example 293, rac-N-((1s,3s)-3-aminocyclobutyl)-4-(2-chloro-4-(5-(1-((3,3-difluorocyclobutypmethyl)-3-(trifluoromethyl)-1H-pyrazol-4-yl)-1-methyl-1H-imidazole-2-carboxamido)benzoyl)piperazine-1-carboxamide hydrochloride]	363

From patent US11390604B2 (Hoffmann-La Roche Inc., priority 2019, dated 2022)
